From US11247987B2, “Inhibiting ubiquitin specific peptidase 30” (FORMA Therapeutics, Inc., priority 2017, dated 2022)

Target: T1, human recombinant USP30 (Homo sapiens, UniProt Q70CQ3)
T1 construct: purchased Boston Biochem E-582
T1 sequence (Q70CQ3 1-517): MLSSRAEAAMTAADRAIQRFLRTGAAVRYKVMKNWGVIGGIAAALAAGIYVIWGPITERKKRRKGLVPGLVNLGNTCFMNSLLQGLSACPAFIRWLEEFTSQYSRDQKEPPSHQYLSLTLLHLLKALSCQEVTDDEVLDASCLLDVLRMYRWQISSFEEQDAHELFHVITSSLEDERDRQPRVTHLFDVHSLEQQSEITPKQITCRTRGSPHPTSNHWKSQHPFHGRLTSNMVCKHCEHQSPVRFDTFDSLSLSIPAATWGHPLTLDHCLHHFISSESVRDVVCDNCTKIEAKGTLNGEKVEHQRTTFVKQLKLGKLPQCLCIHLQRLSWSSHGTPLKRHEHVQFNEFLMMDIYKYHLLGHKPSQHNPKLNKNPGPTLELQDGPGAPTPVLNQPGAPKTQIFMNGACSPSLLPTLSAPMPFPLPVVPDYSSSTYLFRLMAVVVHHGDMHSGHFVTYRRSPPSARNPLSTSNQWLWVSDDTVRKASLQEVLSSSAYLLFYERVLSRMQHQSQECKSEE
Assay: Ubiquitin-Rhodamine 110 Assay for USP30 Activity (USP30 Inhibitor Biochemical Assay)
Settings: 0.2 nM USP30, 25 nM Ub-Rh110, 30 min preincubation, 30 min at room temperature; read-out: USP30 potency range (USP30 biochemical IC50 assay, IC50 ranges)
Outline: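 Human recombinant USP30 (0.2 nM final) was preincubated 30 min with compound (25 μM to 1.3 nM, 10-point) in Tris pH 8.0, 1 mM GSH, BGG and Triton X-100. Ub-Rh110 was then added for 30 min at room temperature and stopped with citric acid. Fluorescence at 485/535 nm gave % inhibition and a 4-parameter IC50 fit.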

N#CN[C@H]1C[C@H](C(=O)Nc2ccc3c(c2)CCC3)C1 [Compound 5-12, trans-3-(cyanoamio)-N-(2,3-dihydro-1H-inden-5-yl)cyclobutane-1-carboxamide]
IC50: 1 to 10 µM
